Experimental data published in article PMC11786751, “An SH3-binding allosteric modulator stabilizes the global conformation of the AML-associated Src-family kinase, Hck” (The Journal of Biological Chemistry, 2024).

Experiments:
[1] = molecular target: T1, Hck (Homo sapiens, UniProt P08631); assay: 1H-15N HSQC NMR titration; also SPR (KD […], near-full-length) and HDX-MS; type: binding
T1 construct: SH3 domain (p59 Hck amino acids 80–144); also SH3-SH2-linker (84–261) and near-full-length Hck (84–524)

[2] = molecular target: T2, Src (Homo sapiens, UniProt P12931); assay: SPR; type: binding
T2 construct: near-full-length (SH3-SH2-kinase-tail)

[3] = molecular target: T3, Lyn (Homo sapiens, UniProt P07948); assay: SPR; type: binding
T3 construct: near-full-length (SH3-SH2-kinase-tail)

[4] = molecular target: T4, Hck (Homo sapiens, UniProt P08631, H284A/T285A/Q523E/Q524E/Q525I); assay: kinetic kinase assay (ADP Quest), activation of the mutant kinase; type: biochemical
T4 construct: near-full-length Hck (p59 amino acids 84–524, modified tail YEEIP)

[5] = molecular target: T1, Hck; assay: 1H-15N HSQC NMR titration; also SPR (KD […], near-full-length), HDX-MS and kinase activation; type: binding

T2 sequence (P12931 2-536): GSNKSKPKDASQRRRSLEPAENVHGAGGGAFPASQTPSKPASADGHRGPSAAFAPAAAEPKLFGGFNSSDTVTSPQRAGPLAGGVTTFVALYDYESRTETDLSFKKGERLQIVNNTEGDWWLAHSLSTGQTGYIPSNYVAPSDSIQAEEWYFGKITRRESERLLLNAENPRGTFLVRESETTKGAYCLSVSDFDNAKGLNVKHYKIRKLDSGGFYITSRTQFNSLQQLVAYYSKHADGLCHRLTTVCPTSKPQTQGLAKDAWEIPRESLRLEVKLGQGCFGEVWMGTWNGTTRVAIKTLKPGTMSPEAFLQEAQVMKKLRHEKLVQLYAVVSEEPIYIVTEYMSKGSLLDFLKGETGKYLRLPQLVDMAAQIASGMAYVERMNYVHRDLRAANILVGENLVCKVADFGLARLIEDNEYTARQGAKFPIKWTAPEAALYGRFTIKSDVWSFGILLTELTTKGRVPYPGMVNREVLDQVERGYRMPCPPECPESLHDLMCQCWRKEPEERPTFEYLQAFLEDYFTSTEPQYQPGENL
T3 sequence (P07948 2-512): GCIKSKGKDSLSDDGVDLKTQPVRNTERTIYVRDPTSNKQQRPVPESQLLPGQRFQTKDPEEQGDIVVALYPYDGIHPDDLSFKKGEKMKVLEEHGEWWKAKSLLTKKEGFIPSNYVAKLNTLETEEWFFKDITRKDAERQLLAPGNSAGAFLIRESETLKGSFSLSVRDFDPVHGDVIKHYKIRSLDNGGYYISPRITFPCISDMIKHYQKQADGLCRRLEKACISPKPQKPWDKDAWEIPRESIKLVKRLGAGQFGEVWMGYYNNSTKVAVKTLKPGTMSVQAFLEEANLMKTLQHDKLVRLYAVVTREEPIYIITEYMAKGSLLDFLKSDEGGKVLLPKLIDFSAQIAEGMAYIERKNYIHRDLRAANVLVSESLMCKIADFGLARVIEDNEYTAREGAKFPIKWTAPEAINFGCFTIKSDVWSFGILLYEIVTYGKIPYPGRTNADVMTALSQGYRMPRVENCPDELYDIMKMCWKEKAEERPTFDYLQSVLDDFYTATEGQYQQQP
T1 sequence (P08631 75-139): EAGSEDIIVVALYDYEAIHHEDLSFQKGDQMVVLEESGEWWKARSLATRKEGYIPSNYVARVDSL
T4 sequence (P08631 79-526 H284A/T285A/Q523E/Q524E/Q525I): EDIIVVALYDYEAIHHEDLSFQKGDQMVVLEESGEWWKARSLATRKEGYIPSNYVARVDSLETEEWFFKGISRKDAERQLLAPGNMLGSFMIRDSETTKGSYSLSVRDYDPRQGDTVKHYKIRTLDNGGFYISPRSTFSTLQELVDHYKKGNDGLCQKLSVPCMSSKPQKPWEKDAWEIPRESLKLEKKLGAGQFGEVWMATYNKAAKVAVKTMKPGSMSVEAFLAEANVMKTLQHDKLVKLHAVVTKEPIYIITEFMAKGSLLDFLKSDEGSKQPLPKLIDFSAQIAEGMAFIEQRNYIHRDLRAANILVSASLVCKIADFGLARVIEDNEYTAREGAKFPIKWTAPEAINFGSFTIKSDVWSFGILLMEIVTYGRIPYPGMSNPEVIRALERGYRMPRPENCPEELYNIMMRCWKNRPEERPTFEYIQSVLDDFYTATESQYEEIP

Row | Kd [1] [µM] | Kd [2] [µM] | Kd [3] [µM] | Kd [5] [µM] | SMILES | kinetic kinase assay (ADP Quest), activation of the mutant kinase [4]
1 | 42.6 ± 4.7 | 55 ± 2.18 | 74.9 ± 19.9 |  | CC(C)Nc1ccnc(NCc2cccnc2Oc2ccc(F)cc2)n1 [PDA1] | Both PDA1 and PDA2 activated Hck-HTA (Fig. 7B), unlike WT Hck, which is only activated by PDA2
2 |  | 236 ± 18.1 | 180 ± 33.7 | 65.1 ± 3.1 | Cc1cnc(NCc2ccccc2-n2ccnc2)nc1N(C)C [PDA2] | 
